Laboratory results reported in patent US11241013B2, “Benzimidazole compounds as agricultural chemicals” (REDAG CROP PROTECTION LTD, priority 2017, dated 2022).

Legend:
Assay type in all cases: cell-based
[1] = test system: Pythium ultimum; experiment: Amended agar assay; design: key to % control Pythium ultimum 2 ppm / % control Pythium ultimum 20 ppm: D: no control detected at this concentration; C: up to 50% control; B: from 50 to 99% control; A: a control of greater than 99%, i.e. no detectable colony growth; conditions: for inhibition of growth at 2 ppm / inhibition of growth at 20 ppm: Globisporangium ultimum; for EC50 Pythium ultimum: amended agar assay, descending concentrations with 5-fold dilutions
How it was run: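 PDA amended with compound, typically 20 or 2 ppm, three replicate dishes inoculated centrally with mycelial plug, incubated 18 °C for 2–7 days. Colony diameter gives % growth reduction vs control; alternatively 5-fold dilution series for EC50.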

[2] = test system: Phytophthora cactorum; experiment: 96 well plate test; design: key: H: no control detected at 20 ppm; G: no control detected at 2 ppm (where the highest test concentration in the assay was 2 ppm); F: an EC50 of ≥20 ppm; an EC50 of less than 20 ppm; conditions: 96 well plate assay, agar amended to 20, 2, 0.2 and 0.02 ppm, assessed after 2 to 3 days
Procedure: Compounds were screened in 96 well plates with 10 compounds per plate. Each compound was screened using agar amended to 20, 2, 0.2 and 0.02 ppm, with proline at 50 and 10 ppm and 0.2% DMSO used as controls. Each test concentration and standard was replicated twice on a plate. Compounds were screened against Phytophthora cactorum. The agar used in the test is a 1% potato dextrose agar. 1000 spores/mL agar were added to the appropriate agar. A ×10 stock solution in 2% DMSO was produced for each dose i.e. 200, 20, 2 and 0.2 ppm, and 10 μl of this added to the appropriate wells on the plate. An equivalent amount of 2% DMSO and proline stock at 500 and 100 ppm were added for the controls. To each well 90 μl of the appropriate agar spore suspension was added to give the required final well concentrations. Plates were incubated at room temperature (18° C.) and assessed after 2 to 3 days. The amount of pathogen growth in each well was compared to the DMSO controls and an EC50 concentration was calculated. The results are provided in Table 1 in which H represents no control detected at 20 ppm, G represents no control detected at 2 ppm (where the highest test concentration in the assay was 2 ppm), F represents an EC50 of ≥20 ppm, E represents an EC50 of less than 20 ppm.

[3] = test system: Phytophthora cinnamomi; experiment: Amended agar assay; design: key to % control Phytophthora cinnamomi 20 ppm: D: no control detected at this concentration; C: up to 50% control; B: from 50 to 99% control; A: a control of greater than 99%, i.e. no detectable colony growth; conditions: for % control Phytophthora cinnamomi 20 ppm: amended PDA agar, % reduction in colony growth vs control plate, 18° C.; for EC50 Phytophthora spp. (marked *: Phytophthora cinnamomi): values marked *: amended agar assay, descending concentrations with 5-fold dilutions
Procedure: Testing was carried out on potato dextrose agar (PDA) amended with each compound at a test concentration of typically 20 ppm or 2 ppm. Amended agar was poured into three replicate 9 cm petri dishes. Each replicate dish was inoculated in the centre with a 5 mm agar plug taken from the leading edge of a culture aged between 2 and 7 days old; the age of the culture was dependant on the growth rate of the pathogen being tested. The test pathogens were Pythium ultimum and Phytophthora cinnamomi. Plates were incubated at 18° C. and the diameter of each colony measured before growth on the fastest growing plate reached the plate edge. This varied between 2 and 7 days depending on the growth rate of test pathogens. The % reduction in colony growth compared to the control plate was calculated for each pathogen. The results are provided in Table 1, in which D represents no control detected at this concentration; C represents up to 50% control; B from 50 to 99% control; and A represents a control of greater than 99%, i.e. no detectable colony growth.
Alternatively, or in addition, the same assay was conducted at descending test concentrations with 5-fold dilutions typically down to 0.032 ppm though sometimes as low as 0.00026 ppm, and an EC50 (the concentration at which 50% control would be achieved) was determined. The results are provided in Table 1 in which G represents no control detected at 20 ppm, F represents an EC50 of ≥20 ppm and E represents an EC50 of less than 20 ppm.

[4] = amended PDA agar, 2 ppm, % reduction in colony growth vs control plate, 18° C.
[5] = amended PDA agar, % reduction in colony growth vs control plate, 18° C.

Structure (SMILES) | EC50 Phytophthora spp. (Phytophthora cactorum) [2] | inhibition of growth at 20 ppm [1, 5] [%] | % control Phytophthora cinnamomi 20 ppm [3] | EC50 Pythium ultimum [1] | EC50 Phytophthora spp. (marked *: Phytophthora cinnamomi) [3] | further results
Cn1nnnc1-n1c(OCc2ccc3ccccc3n2)nc2c(Cl)cccc21 [Example 67] | G |  |  |  |  | inhibition of growth at 2 ppm [1, 4]: > 99%
Cn1nnnc1-n1c(OCc2cccc(N)n2)nc2ccccc21 [Example 1, 6-(((1-(1-Methyl-1H-tetrazol-5-yl)-1H-benzo[d]imidazol-2-yl)oxy)methyl)pyridin-2-amine] |  | > 99 | B (from 50 to 99% control) |  |  | 
Cn1nnnc1-n1c(OCc2ccccn2)nc2ccccc21 [Example 29] |  | > 99 | A (a control of greater than 99%, i.e. no detectable colony growth) | E (an EC50 of less than 20 ppm) | E* (an EC50 of less than 20 ppm) | 
Cn1nnnc1-n1c(OCc2cccc(N)n2)nc2ccc(Br)cc21 [Example 28] |  |  |  | E (an EC50 of less than 20 ppm) | E* (an EC50 of less than 20 ppm) | 
c1ccc(COc2nc3ccccc3n2-c2ccccn2)nc1 [Example 27] |  | < 50 | D |  |  | 
Cn1nnnc1-n1c(OCc2ccccn2)nc2ccc(F)cc21 [Example 20] |  |  |  | E (an EC50 of less than 20 ppm) | E* (an EC50 of less than 20 ppm) | 
Cn1nnnc1-n1c(OCc2cccc(NCc3ccc(C#N)cc3)n2)nc2ccccc21 [Example 46] | G |  |  |  |  | inhibition of growth at 2 ppm [1, 4]: 50 to 99%
Cn1nnnc1-n1c(OCc2cccc(NCc3cccnc3)n2)nc2ccccc21 [Example 41] | G |  |  |  |  | % control Pythium ultimum 2 ppm [1, 4]: D
